Test results published in patent publication US10889595B2, “[1,3]thiazin-2-amine compound, application, and pharmaceutical composition” (TETRANOV PHARMACEUTICAL CO., LTD., priority 2016, dated 2021).

What follows are compounds tested against BACE1 (Homo sapiens (Human), UniProt P56817) (assay: Activity assay: inhibitory activity against the enzyme BACE1). Conditions: 10 doses, 3-fold serial dilution starting from 10 μmol/L, singlet.
Type: biochemical
Protocol: The activity assay for the compound of each example was carried out in this experimental example, and the detailed test method was as follows:
1. The test compound was formulated as […] solution in dimethylsulfoxide;
2. Starting from 10 μmol/L, by 3-fold serial dilution, the inhibitory activity of each compound against the enzyme was tested in singlet state at 10 doses;
3. IC50 values of test compounds were finally obtained.

BACE1, sequence (P56817 46-501): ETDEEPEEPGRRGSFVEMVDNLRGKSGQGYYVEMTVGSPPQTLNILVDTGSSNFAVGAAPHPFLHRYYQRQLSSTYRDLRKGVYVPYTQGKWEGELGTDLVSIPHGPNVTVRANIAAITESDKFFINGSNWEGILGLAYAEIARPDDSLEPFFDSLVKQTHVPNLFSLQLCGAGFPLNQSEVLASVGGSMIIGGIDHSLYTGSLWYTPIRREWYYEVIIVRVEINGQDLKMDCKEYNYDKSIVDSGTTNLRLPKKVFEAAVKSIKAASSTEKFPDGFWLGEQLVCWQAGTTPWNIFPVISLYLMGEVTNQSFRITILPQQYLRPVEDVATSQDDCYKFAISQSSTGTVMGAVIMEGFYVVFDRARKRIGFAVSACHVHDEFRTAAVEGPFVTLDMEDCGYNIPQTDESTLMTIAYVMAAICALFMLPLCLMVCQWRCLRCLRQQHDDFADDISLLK

SMILES | IC50 [nM]
C[C@H]1C[C@@]2(F)CSC(N)=N[C@@]2(c2cc(N)ccc2F)CO1 [Example 7, (4aS,6S,8aS)-8a-(5-amino-2-fluorophenyl)-4a-fluoro-6-methyl-4,4a,5,6,8,8a-hexahydropyrano[3,4-d][1,3]thiazin-2-amine] | 5870
Cc1cnc(C(=O)Nc2cccc([C@]34CO[C@@H](C)C[C@@]3(F)CSC(N)=N4)c2)cn1 [Example 15, N-(3-((4aS,6S,8aS)-2-amino-4a-fluoro-6-methyl-4,4a,5,6,8,8a-hexahydropyrano[3,4-d][1,3]thiazin-8a-yl)phenyl)-5-methylpyrazin-2-carboxamide] | 225

These reach a lower IC50. Values come first.

IC50 [nM] | SMILES
172 | C[C@H]1C[C@@]2(F)CSC(N)=N[C@@]2(c2cc(NC(=O)c3ccc(Cl)cn3)ccc2F)CO1 [Example 11, N-(3-((4aS,6S,8aS)-2-amino-4a-fluoro-6-methyl-4,4a,5,6,8,8a-hexahydropyrano[3,4-d][1,3]thiazin-8a-yl)-4-fluorophenyl)-5-chloropicolinamide]
150 | COc1cnc(C(=O)Nc2ccc(F)c([C@]34CO[C@@H](C)C[C@@]3(F)CSC(N)=N4)c2)cn1 [Example 12]
130 | COc1cnc(C(=O)Nc2cccc([C@]34CO[C@@H](C)C[C@@]3(F)CSC(N)=N4)c2)cn1 [Example 14, N-(3-((4aS,6S,8aS)-2-amino-4a-fluoro-6-methyl-4,4a,5,6,8,8a-hexahydropyrano[3,4-d][1,3]thiazin-8a-yl)phenyl)-5-methoxypyrazin-2-carboxamide]
